The experiment has as its target T1, Kv1.3 potassium channel (Homo sapiens, UniProt P22001).
T1 construct: expressed in transfected cells
The experiment can be described thus: Kv1.3 potassium channel blocker activity, automated whole-cell patch clamp (Patchliner) in CHO-K1 cells stably expressing Kv1.3. The format is cell-based. The note with it: 30 nM-100 μM. As to the method: This assay is used to evaluate the disclosed compounds' activities as Kv1.3 potassium channel blockers.
CHO-K1 cells stably expressing Kv1.3 were grown in DMEM containing 10% heat-inactivated FBS, 1 mM sodium pyruvate, 2 mM L-glutamine, and G418 (500 μg/ml). Cells were grown in culture flasks at 37° C. in a 5% CO2-humidified incubator.
The cells were bathed in an extracellular solution containing 140 mM NaCl, 4 mM KCl, 2 mM CaCl2), 1 mM MgCl2, 5 mM glucose, 10 mM HEPES; pH adjusted to 7.4 with NaOH; 295-305 mOsm. The internal solution contained 50 mM KCl, 10 mM NaCl, 60 mM KF, 20 mM EGTA, 10 mM HEPES; pH adjusted to 7.2 with KOH; 285 mOsm. All compounds were dissolved in DMSO at 30 mM. Compound stock solutions were freshly diluted with external solution to concentrations of 30 nM, 100 nM, 300 nM, 1 μM, 3 μM, 10 μM, 30 μM and 100 μM. The highest content of DMSO (0.3%) was present in 100 μM.
The currents were evoked by applying 100 ms depolarizing pulses from −90 mV (holding potential) to +40 mV were applied with 0.1 Hz frequency. Control (compound-free) and compound pulse trains for each compound concentration applied contained 20 pulses. 10-second breaks were used between pulse trains (see Table A below).
Whole-cell current recordings and compound application were enabled by means of an automated patch clamp platform Patchliner (Nanion Technologies GmbH). EPC 10 patch clamp amplifier (HEKA Elektronik Dr. Schulze GmbH) along with Patchmaster software (HEKA Elektronik Dr. Schulze GmbH) was used for data acquisition. Data were sampled at 10 kHz without filtering. Passive leak currents were subtracted online using a P/4 procedure (HEKA Elektronik Dr. Schulze GmbH). Increasing compound concentrations were applied consecutively to the same cell without washouts in between. Total compound incubation time before the next pulse train was not longer than 10 seconds. Peak current inhibition was observed during compound equilibration.
AUC and peak values were obtained with Patchmaster (HEKA Elektronik Dr. Schulze GmbH). To determine IC50, the last single pulse in the pulse train corresponding to a given compound concentration was used. Obtained AUC and peak values in the presence of compound were normalized to control values in the absence of compound. Using Origin (OridinLab), IC50 was derived from data fit to Hill equation: Icompound/Icontrol=(100−A)/(1+([compound]/IC50)nH)+A, where IC50 value is the concentration at which current inhibition is half-maximal, [compound] is the applied compound concentration, A is the fraction of current that is not blocked and nH is the Hill coefficient.

Molecules are shown by their SMILES.

T1 sequence (P22001 whole entry): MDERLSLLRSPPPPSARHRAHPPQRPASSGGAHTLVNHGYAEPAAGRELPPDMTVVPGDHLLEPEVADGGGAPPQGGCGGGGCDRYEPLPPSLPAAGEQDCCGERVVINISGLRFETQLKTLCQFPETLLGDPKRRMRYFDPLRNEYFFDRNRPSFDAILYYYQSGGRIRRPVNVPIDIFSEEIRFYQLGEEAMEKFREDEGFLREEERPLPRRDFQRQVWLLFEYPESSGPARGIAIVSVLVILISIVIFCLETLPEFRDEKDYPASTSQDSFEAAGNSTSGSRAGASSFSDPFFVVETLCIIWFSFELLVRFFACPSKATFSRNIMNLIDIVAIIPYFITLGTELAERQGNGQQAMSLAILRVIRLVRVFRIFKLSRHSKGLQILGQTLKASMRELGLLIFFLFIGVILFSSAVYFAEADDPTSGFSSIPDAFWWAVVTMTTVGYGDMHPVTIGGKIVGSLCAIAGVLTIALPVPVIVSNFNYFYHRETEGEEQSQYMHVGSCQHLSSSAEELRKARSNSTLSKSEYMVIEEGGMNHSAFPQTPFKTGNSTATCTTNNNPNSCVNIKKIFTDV

Compound `CN(C)CC(=O)N1CCC2(C1)C(=O)Nc1cc(Cl)c(Cl)cc12` (centres unmarked) [Compound 7, 5,6-dichloro-1′-(dimethylglycyl)spiro[indoline-3,3′-pyrrolidin]-2-one] displayed a concentration for half-maximal inhibition (IC50) of less than 3000 nM. As for `O=C1Nc2cc(Cl)c(Cl)cc2[C@]12CCN(C(=O)[C@H]1CC[C@@H](O)CC1)C2` [Compound 51, (S)-5,6-dichloro-1′-((1s,4R)-4-hydroxycyclohexane-1-carbonyl)spiro[indoline-3,3′-pyrrolidin]-2-one], the IC50 was less than 3000 nM. Turning to `O=C(c1cc[nH]c1)N1CC[C@]2(C1)C(=O)Nc1cc(Cl)c(Cl)cc12` [Compound 135, (S)-5,6-dichloro-1′-(1H-pyrrole-3-carbonyl)spiro[indoline-3,3′-pyrrolidin]-2-one], the IC50 was less than 1000 nM.

In turn, `O=C(C[C@H](O)CO)N1CC[C@]2(C1)C(=O)Nc1cc(Cl)c(Cl)cc12` [Compound 76, (S)-5,6-dichloro-1′-((S)-3,4-dihydroxybutanoyl)spiro[indoline-3,3′-pyrrolidin]-2-one] showed an IC50 of less than 3000 nM. Take `CS(=O)(=O)N1CC[C@]2(C1)C(=O)Nc1cc(Cl)c(Cl)cc12` [Compound 143]: the IC50 is less than 1000 nM. With `O=C(CC1CNC1)N1CC[C@]2(C1)C(=O)Nc1cc(Cl)c(Cl)cc12` [Compound 26, (S)-1′-(2-(azetidin-3-yl)acetyl)-5,6-dichlorospiro[indoline-3,3′-pyrrolidin]-2-one], the IC50 is less than 1000 nM. `CC(C)[C@H](N)C(=O)N1CC[C@]2(C1)C(=O)Nc1cc(Cl)c(Cl)cc12` [Compound 47, (S)-1′-(L-valyl)-5,6-dichlorospiro[indoline-3,3′-pyrrolidin]-2-one] registered an IC50 of less than 3000 nM. With `CC(C)(O)C(=O)N1CC[C@]2(C1)C(=O)Nc1cc(Cl)c(Cl)cc12` [Compound 86, (S)-5,6-dichloro-1′-(2-hydroxy-2-methylpropanoyl)spiro[indoline-3,3′-pyrrolidin]-2-one], the IC50 was less than 3000 nM.

Turning to `O=C(CCO)N1CC[C@]2(C1)C(=O)Nc1cc(Cl)c(Cl)cc12` [Compound 156, (S)-5,6-dichloro-1′-(3-hydroxypropanoyl)spiro[indoline-3,3′-pyrrolidin]-2-one], the IC50 was less than 1000 nM. For the compound `O=C(N1CC[C@]2(C1)C(=O)Nc1cc(Cl)c(Cl)cc12)C1(F)CCNCC1` [Compound 34, (S)-5,6-dichloro-1′-(4-fluoropiperidine-4-carbonyl)spiro[indoline-3,3′-pyrrolidin]-2-one], the IC50 was less than 1000 nM. Compound `O=C(C1CC1O)N1CC[C@]2(C1)C(=O)Nc1cc(Cl)c(Cl)cc12` (stereo partly drawn) [Compound 158, (3S)-5,6-dichloro-1′-(2-hydroxycyclopropane-1-carbonyl)spiro[indoline-3,3′-pyrrolidin]-2-one] showed an IC50 of less than 3000 nM.

In turn, `O=C([C@@H]1CC[C@@H](O)C1)N1CC[C@]2(C1)C(=O)Nc1cc(Cl)c(Cl)cc12` (single isomer, unassigned; isomer 2) [Compound 64] gave a half-maximal inhibitory concentration (IC50) of less than 3000 nM. As for `Cc1c(Cl)cc2c(c1F)NC(=O)[C@@]21CCN(C(=O)CO)C1` [Compound 127, (S)-5-chloro-7-fluoro-1′-(2-hydroxyacetyl)-6-methylspiro[indoline-3,3′-pyrrolidin]-2-one], the IC50 was less than 1000 nM. Compound `Nc1cnc(N2CC[C@]3(C2)C(=O)Nc2cc(Cl)c(Cl)cc23)cn1` [Compound 144, (3S)-1′-(5-aminopyrazin-2-yl)-5,6-dichloro-1H-spiro[indole-3,3′-pyrrolidin]-2-one] registered an IC50 of less than 1000 nM. For `O=C1Nc2cc(Cl)c(Cl)cc2[C@]12CCN(C(=O)[C@]13CNCC1C3)C2` (single isomer, unassigned; isomer 1) [Compound 32], the IC50 is less than 1000 nM. Then `O=C([C@H]1CCCNC1)N1CC[C@]2(C1)C(=O)Nc1cc(Cl)c(Cl)cc12` [Compound 16, (S)-5,6-dichloro-1′-((S)-piperidine-3-carbonyl)spiro[indoline-3,3′-pyrrolidin]-2-one], with less than 1000 nM; and `O=C([C@H]1CC[C@H](O)[C@@H](O)C1)N1CC[C@]2(C1)C(=O)Nc1cc(Cl)c(Cl)cc12` (single isomer, unassigned; isomer 2) [Compound 108], with less than 3000 nM; and `O=C([C@H]1CNCCO1)N1CC[C@]2(C1)C(=O)Nc1cc(Cl)c(Cl)cc12` [Compound 10, (S)-5,6-dichloro-1′-((R)-morpholine-2-carbonyl)spiro[indoline-3,3′-pyrrolidin]-2-one], with less than 1000 nM. Under `O=C([C@@H]1CC[C@H](O)[C@@H](O)C1)N1CC[C@]2(C1)C(=O)Nc1cc(Cl)c(Cl)cc12` (single isomer, unassigned; isomer 1) [Compound 103] stands less than 1000 nM. On to `O=C(c1cn[nH]n1)N1CC[C@]2(C1)C(=O)Nc1cc(Cl)c(Cl)cc12` [Compound 137, (S)-5,6-dichloro-1′-(1H-1,2,3-triazole-4-carbonyl)spiro[indoline-3,3′-pyrrolidin]-2-one], for which the IC50 is less than 1000 nM. The compound `NS(=O)(=O)N1CC[C@]2(C1)C(=O)Nc1cc(Cl)c(Cl)cc12` [Compound 142, (S)-5,6-dichloro-2-oxospiro[indoline-3,3′-pyrrolidine]-1′-sulfonamide] yielded an IC50 of less than 3000 nM. On to `Nc1ccc(C(=O)N2CC[C@]3(C2)C(=O)Nc2cc(Cl)c(Cl)cc23)cn1` [Compound 84, (S)-1′-(6-aminonicotinoyl)-5,6-dichlorospiro[indoline-3,3′-pyrrolidin]-2-one], for which the IC50 was less than 1000 nM. In the case of `C[C@H]1CN(C(=O)CO)CC12C(=O)Nc1cc(Cl)c(Cl)cc12` (single isomer, unassigned; diastereoisomer 2) [Compound 131, 5,6-dichloro-1′-(2-hydroxyacetyl)-4′-methylspiro[indoline-3,3′-pyrrolidin]-2-one diastereoisomer 2], the 50% inhibitory concentration (IC50) is less than 1000 nM. `O=C(C[C@H]1CCCN1)N1CC[C@]2(C1)C(=O)Nc1cc(Cl)c(Cl)cc12` [Compound 59, (S)-5,6-dichloro-1′-(2-((R)-pyrrolidin-2-yl)acetyl)spiro[indoline-3,3′-pyrrolidin]-2-one]: the IC50 is less than 3000 nM. As for `O=C([C@@H]1C[C@H]1CO)N1CC[C@]2(C1)C(=O)Nc1cc(Cl)c(Cl)cc12` (relative stereo) [Compound 150, (S)-5,6-dichloro-1′-(1R,2R)-rel-2-(hydroxymethyl)cyclopropane-1-carbonyl)spiro[indoline-3,3′-pyrrolidin]-2-one], the IC50 was less than 1000 nM. As to `O=C(C[C@@H](O)CO)N1CC[C@]2(C1)C(=O)Nc1cc(Cl)c(Cl)cc12` [Compound 77, (S)-5,6-dichloro-1′-((R)-3,4-dihydroxybutanoyl)spiro[indoline-3,3′-pyrrolidin]-2-one], the IC50 was less than 10000 nM. Regarding `NC[C@@H](O)C(=O)N1CC[C@]2(C1)C(=O)Nc1cc(Cl)c(Cl)cc12` [Compound 55, (S)-1′-((R)-3-amino-2-hydroxypropanoyl)-5,6-dichlorospiro[indoline-3,3′-pyrrolidin]-2-one], the IC50 was less than 1000 nM. On to `O=C(c1nnc[nH]1)N1CC[C@]2(C1)C(=O)Nc1cc(Cl)c(Cl)cc12` [Compound 136, (S)-5,6-dichloro-1′-(1H-1,2,4-triazole-3-carbonyl)spiro[indoline-3,3′-pyrrolidin]-2-one], for which the IC50 is less than 1000 nM. Regarding `O=C1Nc2cc(Cl)c(Cl)cc2[C@]12CCN(S(=O)(=O)CCO)C2` [Compound 138, (3S)-5,6-dichloro-1′-(2-hydroxyethanesulfonyl)-1H-spiro[indole-3,3′-pyrrolidin]-2-one], the IC50 is less than 1000 nM. Then `O=C(CO)N1CC[C@]2(C1)C(=O)Nc1cc(Cl)c(Br)cc12` [Compound 118, (S)-5-bromo-6-chloro-1′-(2-hydroxyacetyl)spiro[indoline-3,3′-pyrrolidin]-2-one], with less than 1000 nM. In turn, `C[C@@H]1C[C@]2(CN1C(=O)CO)C(=O)Nc1cc(Cl)c(Cl)cc12` (single isomer, unassigned; isomer 3) [Compound 125, 5,6-dichloro-1′-(2-hydroxyacetyl)-5′-methyl-1H-spiro[indole-3,3′-pyrrolidin]-2-one isomer 3] registered an IC50 of less than 1000 nM. Then `O=C([C@H]1CC[C@@H](O)C1)N1CC[C@]2(C1)C(=O)Nc1cc(Cl)c(Cl)cc12` (single isomer, unassigned; isomer 3) [Compound 65], with less than 3000 nM.

The values above are taken from patent US20240391926A1, “SPIROINDOLINONE COMPOUNDS AS Kv1.3 POTASSIUM SHAKER CHANNEL BLOCKERS” (D.E. Shaw Research, LLC, priority 2021, published 2024).
